Test results: patent publication US5747545A, “Method of preventing NMDA receptor complex-mediated Neuronal damage” (priority 1995, dated 1998)
Entries after “also recorded” stand apart in the source; their conditions may differ.

Experiments:
[1] = test system: cerebral cortical infarct (rat pups); assay: Bilateral carotid ligation plus hypoxia stroke model in rat pups pretreated with NTG patches; format: in vivo
Method: Rat pups were treated with nitroglycerin (NTG) approximately for 36-48 hours before performing bilateral carotid ligations. The dosing regimen for the 3 groups of rat pups used to generate the data was as follows.
Hair was removed from the abdominal region of the rat pup using a razor. One-quarter of a NTG patch (Minitran) was applied to the shaved area. A quarter patch of this size corresponds to a dose of 0.6 mg/24 hours (whole patch 2.4 mg/24 hr). Between 12 and 16 hours later, another quarter-patch was applied to the rat's abdomen, leaving the first on. This procedure was again repeated 12-16 hours later. Each rat pup received 3 or 4 quarter patches before surgery, which was performed two days later and consisted of bilateral carotid ligation followed by hypoxia to induce a stroke.
Using this procedure of inducing NTG systemic tolerance, the following results were obtained: In the control group, 7/11 (64%) of the animals suffered large ([…]) cerebral cortical infarcts. In contrast, in the NTG-treated group, only 2/13 (15%) of the animals had any discernible cerebral infarct at all (P<0.03 by Fisher's exact test).
Animals are operated on (to induce a stroke) approximately 48 hr after the initial administration of NTG patches.

[2] = test system: cortical neurons (NMDA receptor-mediated neurotoxicity); assay: Neurotoxicity assay: survival of cortical neurons after DTT and NMDA exposure; format: cell-based, rat; settings: NTG 100 μM (30 μM NMDA, 30 min); SNP 400 μM (75 μM NMDA, 5 min); FIGS. 6A and 6B
Method: To test compounds for their ability to prevent neurotoxicity, neuronal cell death may be assayed as follows. […] The candidate compound is tested by addition (e.g., in a series of concentrations ranging from 0.1 nM-10 mM) after DTT treatment but before NMDA treatment. The candidate compound can be added for minutes, hours, or even days prior to its washout period. […] Neuronal cultures are scored for cell survival after this overnight incubation because NMDA toxicity is often delayed by several hours following NMDA exposure.
Using the neurotoxicity assay described above, the compounds sodium nitroprusside and nitroglycerin were tested individually for their ability to increase survival of neonatal cortical neurons.
As shown in FIG. 6A-6D, surviving neurons are expressed as the percentage of viable neurons in the control culture dishes in the same experiment. The concentrations of drugs were as follows: APV (2 mM), NTG (100 μM), SNP (400 μM), DTT (0.5-2 mM), and reduced Hb (500 μM). […] Values are mean ±SEM for experiments run in triplicate on sibling cultures on separate days (total of 32 experiments). Astericks indicate significant difference compared with the value for DTT-NMDA exposure, P<0.05 (ANOVA followed by Scheffe multiple comparison of means.

[3] = test system: NMDA receptor (cortical neurons); assay: Patch-clamp recording of NMDA-evoked current in cortical neurons; format: cell-based, rat (Sprague-Dawley)
[4] = Development of tolerance to systemic effects of NTG in humans; format: in vivo, human
Excerpt: Therefore, it is advantageous to induce NTG tolerance by gradually increasing dosage, thus increasing the neuronal protective effect.
To illustrate the development of systemic tolerance, a human patient could be made tolerant by intravenous administration of NTG within 18-24 hr of continuous infusion (see for example, J. E. Shaffer, B. -A. Han, W. H. Chern, and F. W. Lee, J. Pharmacol. Exper. Therap., 1992;260:286-293; D. C. May, J. J. Popma, Wh. H. Black, S. Scahaffer, H. R. Lee, B. D. Levine, and L. D. Hillis, New Engl. J. Med. 1987;317:805-809; C. M. Newman, J. B. Warren, G. W. Taylor, A. R. Boobis, and D. S. Davis, Br. J. Pharmacol. 1990;99:825-829). Oral, nasal spray, or sublingual NTG could also be used to induce systemic tolerance.
Another, perhaps easier, method for making humans tolerant within 24 hours to the systemic effects of NTG is to administer nitroglycerin as nitropaste or as a transdermal patch for transdermal delivery, for instance, as follows: 1/2inch every 4 to 6 hours, while monitoring the blood pressure (to see when hypotension subsides from the applied nitropaste). As tolerated (e.g., in the absence of sudden drops in blood pressure), the dose of nitropaste is increased to up to 3 inches with each administration. Under these conditions, tolerance (as evidenced by no effect on systemic blood pressure) will develop in 18-24 hours or less. […]

O=[N+]([O-])OCC(CO[N+](=O)[O-])O[N+](=O)[O-] [NTG, 1,2,3-propanetriol trinitrate]
Animals with any discernible cerebral infarct (number/total) ([1]; NTG patches approx. 36-48 h before bilateral carotid ligation, control 7/11 (64%) large infarcts, P<0.03 Fisher's exact test): 2/13 | Animals with any discernible cerebral infarct (percent) ([1]; NTG patches approx. 36-48 h before bilateral carotid ligation, control 64%, P<0.03): 15% | Cerebral protection ([1]; NTG transdermal patches, tolerance-inducing procedure): cerebral protective | Effect on neuronal injury engendered by NMDA after exposure to DTT [2]: ameliorated neuronal injury | Effect on NMDA-evoked current ([3]; 50 μM NMDA + 1 μM glycine, -60 mV, DTT 2 mM, NTG 500 μM, DTNB 500 μM, 2 min exposure, washout, FIG. 4): attenuated; also recorded: inhibited the responses | Effect on amplitude of NMDA evoked current following alkylation with NEM ([3]; after 1-5 mM NEM): neither NTG nor DTNB significantly affected the amplitude of NMDA evoked current | Time to systemic tolerance, nitropaste or transdermal patch ([4]; no effect on systemic blood pressure, nitropaste dose escalated up to 3 inches, "will develop in 18-24 hours or less"): 18 to 24 h | Tolerance to undesired systemic effects ([4]; systemic effects e.g. blood pressure drop, coronary artery dilation or headache): patients can be made tolerant to the undesired systemic effects of NTG
